Test results reported in patent US10105357B2, “Indication of antibiotic drugs for preparation of cancer inhibition pharmaceutical composition” (LAUNX BIOMEDICAL CO., LTD., priority 2014, dated 2018).
Where a name gives a salt, the structure may show the parent alone. Read-outs that look alike come from different tables or passages of the source.

Experiments:
[1] = test system: A375 (Amelanotic Melanoma); experiment: Cell viability analysis, skin cancer A375; assay type: cell-based, human; settings: Homo sapiens
[2] = test system: MDA-MB-231 (Mammary Gland, Adenocarcinoma); experiment: Cell viability analysis, breast cancer MDA-MB-231; assay type: cell-based, human; settings: Homo sapiens, MDA-MB-231, 72 h, read-out: The results of antibiotic drug inhibiting cancer cell lines (cell viability analysis), MDA-MB231
[3] = test system: HI650 (Lung Adenocarcinoma); experiment: Cell viability analysis, lung cancer HI650; assay type: cell-based, human; settings: Homo sapiens
[4] = test system: MCF7 (Mammary Gland, Adenocarcinoma); experiment: Cell viability analysis, breast cancer MCF7; assay type: cell-based, human; settings: Homo sapiens
cancer cell lines = experiment: Cell viability analysis (WST-1) on cancer cell lines; assay type: cell-based, human; settings: drug 10 μM, 72 hours, WST-1; Table 3
[5] = test system: C-33A (Cervical carcinoma); experiment: Cell viability analysis, cervical cancer C-33A; assay type: cell-based, human; settings: Homo sapiens, C-33-A, 72 h, read-out: The results of antibiotic drug inhibiting cancer cell lines (cell viability analysis), C-33A
[6] = test system: AGS (Gastric Adenocarcinoma); experiment: Cell viability analysis, gastric cancer AGS; assay type: cell-based, human; settings: Homo sapiens
T24 = experiment: Cell viability analysis, bladder cancer T24; assay type: cell-based, human; settings: Homo sapiens, T-24, 72 h, read-out: The results of antibiotic drug inhibiting cancer cell lines (cell viability analysis), T24
BxPC-3 = experiment: Cell viability analysis, pancreatic cancer BxPC-3; assay type: cell-based, human; settings: Homo sapiens, BXPC-3, 72 h, read-out: The results of antibiotic drug inhibiting cancer cell lines (cell viability analysis), BxPC-3
[7] = test system: SAS (Tongue squamous cell carcinoma); experiment: Cell viability analysis, tongue cancer SAS; assay type: cell-based, human; settings: Homo sapiens, 72 h, read-out: The results of antibiotic drug inhibiting cancer cell lines (cell viability analysis), SAS
[8] = test system: HL-60 (Acute Promyelocytic Leukemia); experiment: Cell viability analysis, leukemia HL-60; assay type: cell-based, human; settings: Homo sapiens, HL-60; drug 10 μM, 72 hours, WST-1, OD450 nm; read-out: cell viability (survival rate), HL-60
[9] = test system: TSGH-8301 (Urinary Bladder Carcinoma); experiment: Cell viability analysis, bladder cancer TSGH-8301; assay type: cell-based, human; settings: Homo sapiens
[10] = test system: HeLa (Cervix Adenocarcinoma); experiment: Cell viability analysis, cervical cancer HeLa; assay type: cell-based, human; settings: Homo sapiens, HeLa
[11] = test system: HepG2 (Hepatocellular Carcinoma); experiment: Cell viability analysis, hepatic cancer HepG2; assay type: cell-based, human; settings: Homo sapiens
[12] = test system: BCC (basal cell carcinoma); experiment: Cell viability analysis, skin cancer BCC; assay type: cell-based, human; settings: Homo sapiens, 72 h, read-out: The results of antibiotic drug inhibiting cancer cell lines (cell viability analysis), BCC
[13] = test system: A549 (Lung Adenocarcinoma); experiment: Cell viability analysis, lung cancer A549; assay type: cell-based, human; settings: Homo sapiens
TOV-21G = experiment: Cell viability analysis, ovarian cancer TOV-21G; assay type: cell-based, human; settings: Homo sapiens, TOV21G, 72 h, read-out: The results of antibiotic drug inhibiting cancer cell lines (cell viability analysis), TOV-21G
U-2OS = experiment: Cell viability analysis, osteosarcoma U-2OS; assay type: cell-based, human; settings: Homo sapiens, U2OS, 72 h, read-out: The results of antibiotic drug inhibiting cancer cell lines (cell viability analysis), U2OS
[14] = test system: LoVo (Colorectal Adenocarcinoma); experiment: Cell viability analysis, colon cancer LoVo; assay type: cell-based, human; settings: Homo sapiens, LoVo
[15] = test system: PC3 (p53−) (Prostate Adenocarcinoma); experiment: Cell viability analysis, prostate cancer PC3; assay type: cell-based, human; settings: Homo sapiens
[16] = test system: MKN-45 (Gastric Adenocarcinoma); experiment: Cell viability analysis, gastric cancer MKN-45; assay type: cell-based, human; settings: Homo sapiens
AsPC-1 = experiment: Cell viability analysis, pancreatic cancer AsPC-1; assay type: cell-based, human; settings: Homo sapiens, ASPC1, 72 h, read-out: The results of antibiotic drug inhibiting cancer cell lines (cell viability analysis), AsPC-1
[17] = test system: Hep3B (hepatocellular carcinoma); experiment: Cell viability analysis, hepatic cancer Hep3B; assay type: cell-based, human; settings: Homo sapiens, Hep3B, 72 h, read-out: The results of antibiotic drug inhibiting cancer cell lines (cell viability analysis), Hep3B
[18] = test system: 786-O (Renal adenocarcinoma); experiment: Cell viability analysis, renal cancer 786-O; assay type: cell-based, human; settings: Homo sapiens, 786-0, 72 h, read-out: The results of antibiotic drug inhibiting cancer cell lines (cell viability analysis), 786-O
NIH: OVCAR-3 = experiment: Cell viability analysis, ovarian cancer NIH: OVCAR-3; assay type: cell-based, human; settings: Homo sapiens, OVCAR-3, 72 h, read-out: The results of antibiotic drug inhibiting cancer cell lines (cell viability analysis), NIH-OVCAR-3
[19] = test system: HCT116 (p53+) (Colorectal Carcinoma)
[20] = A-375, 72 h, A375, repeated experiment, read-out: The results of antibiotic drug inhibiting cancer cell lines (cell viability analysis), A375
[21] = A-375, drug 10 μM, 72 hours, WST-1, OD450 nm, read-out: cell viability (survival rate), A375
[22] = NCI-H1650, 72 h, H1650, repeated experiment, read-out: The results of antibiotic drug inhibiting cancer cell lines (cell viability analysis), H1650
[23] = NCI-H1650, drug 10 μM, 72 hours, WST-1, OD450 nm, read-out: cell viability (survival rate), H1650
[24] = MCF7, 72 h, MCF-7, repeated experiment, read-out: The results of antibiotic drug inhibiting cancer cell lines (cell viability analysis), MCF-7
[25] = MCF7, drug 10 μM, 72 hours, WST-1, OD450 nm, read-out: cell viability (survival rate), MCF7
[26] = 72 h, AGS, repeated experiment, read-out: The results of antibiotic drug inhibiting cancer cell lines (cell viability analysis), AGS
[27] = drug 10 μM, 72 hours, WST-1, OD450 nm, read-out: cell viability (survival rate), AGS
[28] = 72 h, TSGH-8301, repeated experiment, read-out: The results of antibiotic drug inhibiting cancer cell lines (cell viability analysis), TSGH-8301
[29] = drug 10 μM, 72 hours, WST-1, OD450 nm, read-out: cell viability (survival rate), TSGH
[30] = 72 h, repeated experiment, read-out: The results of antibiotic drug inhibiting cancer cell lines (cell viability analysis), HeLa
[31] = drug 10 μM, 72 hours, WST-1, OD450 nm, read-out: cell viability (survival rate), HeLa
[32] = 72 h, HepG2, repeated experiment, read-out: The results of antibiotic drug inhibiting cancer cell lines (cell viability analysis), HepG2
[33] = HepG2, drug 10 μM, 72 hours, WST-1, OD450 nm, read-out: cell viability (survival rate), HepG2
[34] = 72 h, A549, repeated experiment, read-out: The results of antibiotic drug inhibiting cancer cell lines (cell viability analysis), A549
[35] = A549, drug 10 μM, 72 hours, WST-1, OD450 nm, read-out: cell viability (survival rate), A549
[36] = 72 h, repeated experiment, read-out: The results of antibiotic drug inhibiting cancer cell lines (cell viability analysis), LoVo
[37] = drug 10 μM, 72 hours, WST-1, OD450 nm, read-out: cell viability (survival rate), LoVo
[38] = 72 h, PC-3, repeated experiment, read-out: The results of antibiotic drug inhibiting cancer cell lines (cell viability analysis), PC-3
[39] = drug 10 μM, 72 hours, WST-1, OD450 nm, read-out: cell viability (survival rate), PC3
[40] = 72 h, MKN-45, repeated experiment, read-out: The results of antibiotic drug inhibiting cancer cell lines (cell viability analysis), MKN-45
[41] = MKN-45, drug 10 μM, 72 hours, WST-1, OD450 nm, read-out: cell viability (survival rate), MKN-45

Structure (SMILES) | viability at 10 µM [1, 20] | viability at 10 µM [1, 21] | viability at 10 µM [2] | viability at 10 µM [3, 22] | viability at 10 µM [3, 23] | viability at 10 µM [4, 24] | viability at 10 µM [4, 25] | inhibition effect on different cancer cell lines (cancer cell lines) | viability at 10 µM [5] | viability at 10 µM (T24) | viability at 10 µM (BxPC-3) | viability at 10 µM [7] | viability at 10 µM [12] | viability at 10 µM (TOV-21G) | viability at 10 µM (U-2OS) | viability at 10 µM (AsPC-1) | viability at 10 µM [17] | viability at 10 µM [18] | viability at 10 µM (NIH: OVCAR-3) | viability [19] | other results
CCC[S+]([O-])c1ccc2[nH]c(NC(=O)OC)nc2c1 (centres unmarked) [Albendazole Oxide (Ricobendazole), Albendazole Oxide] | 66.5% | 92.9% | 81.1% | 64.6% | 59.5% | 68.3% | 62.3% | significant inhibition effect | 102% | 89.8% | 50.2% | 92.4% | 57.1% | 76.3% | 84.8% | 67.6% | 97.9% | 86.1% | 72.1% | 91.3% | viability at 10 µM [6, 26]: 80%; viability at 10 µM [6, 27]: 34%; viability at 10 µM [8]: 103%; viability at 10 µM [9, 28]: 63.3%; viability at 10 µM [9, 29]: 77.7%; viability at 10 µM [10, 30]: 49.4%; viability at 10 µM [10, 31]: 56%; viability at 10 µM [11, 32]: 92.9%; viability at 10 µM [11, 33]: 104%; viability at 10 µM [13, 34]: 95.5%; viability at 10 µM [13, 35]: 155%; viability at 10 µM [14, 36]: 88.2%; viability at 10 µM [14, 37]: 68.9%; viability at 10 µM [15, 38]: 78.7%; viability at 10 µM [15, 39]: 60.5%; viability at 10 µM [16, 40]: 74.3%; viability at 10 µM [16, 41]: 60.8%
CN(C)C(=O)C(CCN1CCC(O)(c2ccc(Cl)cc2)CC1)(c1ccccc1)c1ccccc1 [Loperamide hydrochloride] | 34.3% | 58.8% | 72.5% | 41.3% | 66.7% | 36.2% | 78.9% | significant inhibition effect | 39.6% | 73.5% | 35.7% | 31.8% | 51.5% | 24.2% | 32% | 47.5% | 50.2% | 40.9% | 75.5% | 47.3% | viability at 10 µM [6, 26]: 22.2%; viability at 10 µM [6, 27]: 57.3%; viability at 10 µM [9, 28]: 42.9%; viability at 10 µM [9, 29]: 42.7%; viability at 10 µM [10, 30]: 36.8%; viability at 10 µM [10, 31]: 73%; viability at 10 µM [11, 32]: 35.8%; viability at 10 µM [11, 33]: 103%; viability at 10 µM [13, 34]: 26.2%; viability at 10 µM [13, 35]: 104%; viability at 10 µM [14, 36]: 49.3%; viability at 10 µM [14, 37]: 64.8%; viability at 10 µM [15, 38]: 41.6%; viability at 10 µM [15, 39]: 64.7%; viability at 10 µM [16, 40]: 61.5%; viability at 10 µM [16, 41]: 64.3%
O=c1n(CCCN2CCN(c3cccc(Cl)c3)CC2)nc2ccccn12 [Trazodone hydrochloride (Desyrel), Trazodone hydrochloride] |  |  | 87.8% |  |  |  |  | significant inhibition effect | 112% | 106% | 73.5% | 58.4% | 114% | 107% | 57.6% | 89.4% | 110% | 95.5% | 103% | 113% | viability at 10 µM ([1]; A-375, 72 h, read-out: The results of antibiotic drug inhibiting cancer cell lines (cell viability analysis), A375, A375, repeated experiment): 111%; viability at 10 µM ([3]; NCI-H1650, 72 h, read-out: The results of antibiotic drug inhibiting cancer cell lines (cell viability analysis), H1650, H1650, repeated experiment): 82.4%; viability at 10 µM ([4]; MCF7, 72 h, read-out: The results of antibiotic drug inhibiting cancer cell lines (cell viability analysis), MCF-7, MCF-7, repeated experiment): 97.8%; viability at 10 µM ([6]; 72 h, read-out: The results of antibiotic drug inhibiting cancer cell lines (cell viability analysis), AGS, repeated experiment): 120%; viability at 10 µM ([9]; 72 h, read-out: The results of antibiotic drug inhibiting cancer cell lines (cell viability analysis), TSGH-8301, TSGH-8301, repeated experiment): 134%; viability at 10 µM ([10]; 72 h, read-out: The results of antibiotic drug inhibiting cancer cell lines (cell viability analysis), HeLa, repeated experiment): 105%; viability at 10 µM ([11]; HepG2, 72 h, read-out: The results of antibiotic drug inhibiting cancer cell lines (cell viability analysis), HepG2, HepG2, repeated experiment): 109%; viability at 10 µM ([13]; A549, 72 h, read-out: The results of antibiotic drug inhibiting cancer cell lines (cell viability analysis), A549, A549, repeated experiment): 92%; viability at 10 µM ([14]; 72 h, read-out: The results of antibiotic drug inhibiting cancer cell lines (cell viability analysis), LoVo, repeated experiment): 88.8%; viability at 10 µM ([15]; 72 h, read-out: The results of antibiotic drug inhibiting cancer cell lines (cell viability analysis), PC-3, PC-3, repeated experiment): 126%; viability at 10 µM ([16]; MKN-45, 72 h, read-out: The results of antibiotic drug inhibiting cancer cell lines (cell viability analysis), MKN-45, MKN-45, repeated experiment): 108%
